Assay results taken from US11318118B1, “Methods and compositions for treating SARS-CoV-2 infection using carboxyamidotriazole orotate” (TACTICAL THERAPEUTICS INC., priority 2021, dated 2022).
Where two headings read alike, the source gives them in different places.

Assays:
plasma cytokines = test: Luminex (Milliplex MAP Human Cytokine/Chemokine Magnetic Bead Panel) testing of plasma specimens from Phase I cancer patients given CTO; type: in vivo; set-up: key to VEGF plasma level / IL-15 plasma level / IL-17A plasma level / IL-1RA plasma level / IL-2 plasma level / IL-4 plasma level / IL-6 plasma level / IL-8 plasma level / IP-10 plasma level / MIP1a plasma level / RANTES plasma level / EGF plasma level / **IL-1β plasma level (second entry of the list) / **TNFα plasma level / GM-CSF plasma level / IFNγ plasma level / IL-1β plasma level (first entry of the list) / IL-12p40 plasma level / IL-12p70 plasma level / IL-13 plasma level: + increased; − decreased
Experimental: In a Phase I trial of CTO testing the safety and tolerability of CTO in cancer patients, Plasa samples were obtained from three patients after administration of different doses of CTO daily as follows: 1) NSCLC Patient 002-46 (CTO 555 mg/m2), 2) NSCLC Patient 002-50 (CTO 427 mg/m2) and 3) Ovarian Cancer Patient 002-53 (CTO 427 mg/m2) The levels of cytokines were measured by using the HCYTMAG-60K-PX30/Milliplex MAP Human Cytokine/Chemokine Magnetic Bead Panel from Milliplex, USA.
Table 1. Target Cytokines in Luminex Panel Testing of Plasma Specimens-Results
Expressed as Cytokine (+ increased) or (− decreased)

SARS-CoV-2 = type: cell-based; conditions: Vero E6 cells
[1] = tested on: non-infected Vero E6 cells; conditions: read-out: EC 50 in non-infected Vero E6 cells; cell viability, Cell Titer Glo
SARS-CoV-2 infection = type: in vivo; conditions: one patient, CTO 600 mg daily oral, on the second day
[2] = CTO 427-555 mg/m2 daily, three cancer patients, versus baseline
[3] = CTO doses ranging from 427 mg/m2 to 555 mg/m2

NC(=O)c1nnn(Cc2cc(Cl)c(C(=O)c3ccc(Cl)cc3)c(Cl)c2)c1N.O=C(O)c1cc(=O)[nH]c(=O)[nH]1 [CTO]
**IL-1β plasma level (second entry of the list) (plasma cytokines; [2]): − | **TNFα plasma level (plasma cytokines; [2]): − | EGF plasma level (plasma cytokines; [2]): + | GM-CSF plasma level (plasma cytokines; [2]): − | IFNα2 plasma level (plasma cytokines; [2]): —I— | IFNγ plasma level (plasma cytokines; [2]): − | IL-1RA plasma level (plasma cytokines; [2]): − | IL-1β plasma level (first entry of the list) (plasma cytokines; [2]): + | IL-2 plasma level (plasma cytokines; [2]): − | IL-4 plasma level (plasma cytokines; [2]): − | IL-6 plasma level (plasma cytokines; [2]): − | IL-8 plasma level (plasma cytokines; [2]): − | IL-12p40 plasma level (plasma cytokines; [2]): + | IL-12p70 plasma level (plasma cytokines; [2]): − | IL-13 plasma level (plasma cytokines; [2]): − | IL-15 plasma level (plasma cytokines; [2]): − | IL-17A plasma level (plasma cytokines; [2]): − | IP-10 plasma level (plasma cytokines; [2]): − | MIP1a plasma level (plasma cytokines; [2]): − | RANTES plasma level (plasma cytokines; [2]): + | VEGF plasma level (plasma cytokines; [2]): − | levels of cytokines including EGF, IFN α2, IL-1β, IL-12p40 (plasma cytokines; [3]): increase | levels of several cytokines including VEGF, GM-CSF, INF-γ, IL-2, IL-12p70, IL-13, IL-15, IL-17a, IL-1RA, IL-1α, IL-2, ILl-4, IL-6, IL-8, il-10, MIP1-α. IL-1 TNF-α (plasma cytokines; [3]): reduction | IC50 (SARS-CoV-2; 72 hours post-inoculation, read-out: IC50, CPE assay (highest dose tested)): > 20 µM | replication of SARS-CoV-2 (SARS-CoV-2; CTO up to 5 μM): inhibited | IC50 (SARS-CoV-2; FIG. 2, read-out: IC50, cytopathic effect (CPE) for SARS-CoV-2): > 20 µM | Maximum % Inhibition, CPE for SARS-CoV-2 (SARS-CoV-2; recorded <20 μM concentration): 29.03% | EC50 [1]: 14.9 µM | symptoms of SARS-CoV-2 infection (SARS-CoV-2 infection): great improvement in most of the symptoms | body weight (SARS-CoV-2 infection; had lost twelve pounds within 14 days before): remained at constant weight
